{"source": "patent US5364864A", "about": "“1,4-disubstituted piperidines, their preparation and their application in therapy” (priority 1991, dated 1994)", "biological_target": "acetylcholinesterase (Homo sapiens, UniProt P22303)", "sequence (P22303 32-614)": "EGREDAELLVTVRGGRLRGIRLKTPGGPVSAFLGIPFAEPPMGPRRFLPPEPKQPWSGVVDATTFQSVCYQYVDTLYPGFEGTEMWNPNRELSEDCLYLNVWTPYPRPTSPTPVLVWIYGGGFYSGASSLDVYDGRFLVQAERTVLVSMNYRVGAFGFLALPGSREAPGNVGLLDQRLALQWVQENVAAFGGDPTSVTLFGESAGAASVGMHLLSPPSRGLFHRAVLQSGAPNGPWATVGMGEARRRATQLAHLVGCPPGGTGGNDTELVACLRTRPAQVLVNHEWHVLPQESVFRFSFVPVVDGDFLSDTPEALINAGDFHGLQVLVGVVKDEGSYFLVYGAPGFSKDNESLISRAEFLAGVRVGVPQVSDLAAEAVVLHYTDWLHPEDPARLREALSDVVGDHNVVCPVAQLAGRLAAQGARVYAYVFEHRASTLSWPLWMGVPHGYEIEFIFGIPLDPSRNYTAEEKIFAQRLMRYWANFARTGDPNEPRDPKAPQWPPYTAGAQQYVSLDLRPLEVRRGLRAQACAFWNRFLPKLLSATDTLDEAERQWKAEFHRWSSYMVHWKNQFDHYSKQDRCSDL", "experiment": "Inhibition of acetylcholinesterase activity (method of Ellman et al.)", "assay_type": "biochemical"}
{"molecule": "S=C(NCCC1CCN(Cc2ccccc2)CC1)Nc1ccccc1", "note": "[Compound 1, 1-Phenyl-3-[2-(1-benzyl-4-piperidyl)ethyl]thiourea]", "values": [{"measurement": "IC50", "result": 320, "unit": "nM"}]}
